Consider 14 molecules from patent US6410558B1, “Fungicides for the control of take-all disease of plants” (Monsanto Technology LLC, priority 1991, dated 2002).

Molecules are shown by their SMILES. A value given as a limit tells only on which side of the number the result lay.

For one assay, the system named is Ggt. Kind of assay: In vivo Assay: control of Ggt on wheat grown in pots of Ggt-infested soil, root disease rating. The arrangement: species or system Gaeumannomyces graminis var. tritici. The following applies: Gaeumannomyces graminis, 672 h; 0.5 mg active ingredient per pot; 'Bergen' or 'Anza' wheat in Ggt-infested soil; after four weeks; vs untreated control; read-out: In vivo, percent disease control. The procedure, abridged: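 Wheat ('Bergen' or 'Anza') seeds in soil infested with Ggt-colonised oats (4% v/v) treated at 0.5 mg active ingredient per pot in acetone/water with Tween 20; five pots per treatment. After four weeks, seminal roots rated 0–5; trimmed mean of three replicates converted to percent disease control versus untreated.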
Turning to `CCNC(=O)c1c([Si](C)(C)C)ccc(OC)c1Cl` [Example 219, 2-Chloro-N-ethyl-3-methoxy-6-(trimethylsilyl)benzamide], the pest or weed control at 0.5 mg/pot was 97%.

Regarding `CCNC(=O)c1c([Si](C)(C)C)ccc(Br)c1Cl` [Example 220, 3-Bromo-2-chloro-N-ethyl-6-(trimethylsilyl)benzamide], the pest or weed control at 0.5 mg/pot turned out to be 97%.

With `CCNC(=O)c1c([Si](C)(C)C)ccc(C=O)c1Cl` [Example 223, 2-Chloro-N-ethyl-3-formyl-6-(trimethylsilyl)benzamide], the pest or weed control at 0.5 mg/pot came out at 82%.

Consider `CCNC(=O)c1c([Si](C)(C)C)ccc(C(F)F)c1Cl` [Example 224, 2-Chloro-3-(difluoromethyl)-N-ethyl-6-(trimethylsilyl)benzamide], for which the pest or weed control at 0.5 mg/pot was 21%.

Take `CCNC(=O)c1c([Si](C)(C)C)ccc(CO)c1Cl` [Example 227, 2-Chloro-N-ethyl-3-(hydroxymethyl)-6-(trimethylsilyl)benzamide]: the pest or weed control at 0.5 mg/pot was determined as 34%.

For `CCNC(=O)c1c([Si](C)(C)C)ccc(CF)c1Cl` [Example 228, 2-Chloro-N-ethyl-3-(fluoromethyl)-6-(trimethylsilyl)benzamide], the pest or weed control at 0.5 mg/pot was 84%.

As to `CCNC(=O)c1c(Cl)ccc(Br)c1[Si](C)(C)C` [Example 232, 3-Bromo-6-chloro-N-ethyl-2-(trimethylsilyl)benzamide], the pest or weed control at 0.5 mg/pot came to 78%.

For the molecule `CCNC(=O)c1sc([Si](C)(C)C)cc1[Si](C)(C)C` [Example 249, N-Ethyl-3,5-bis(trimethylsilyl)-2-thiophenecarboxamide], the pest or weed control at 0.5 mg/pot turned out to be 60%.

In the case of `CCNC(=O)c1sc(Cl)cc1[Si](C)(C)C` [Example 254, 5-Chloro-N-ethyl-3-(trimethylsilyl)-2-thiophenecarboxamide], the pest or weed control at 0.5 mg/pot was found to be 40%.

As to `CCNC(=O)c1sc(Br)cc1[Si](C)(C)C` [Example 266, 5-Bromo-N-ethyl-3-(trimethylsilyl)-2-thiophenecarboxamide], the pest or weed control at 0.5 mg/pot was 4%.

For the molecule `CCNC(=O)c1cc([Si](C)(C)C)sc1[Si](C)(C)C` [Example 269, N-Ethyl-2,5-bis(trimethylsilyl)-3-thiophenecarboxamide], the pest or weed control at 0.5 mg/pot is 4%.

With `CCNC(=O)c1c([Si](C)(C)C)sc2c1CCCC2` [Example 270, N-Ethyl-2-(trimethylsilyl)-4,5,6,7-tetrahydrobenzo[B]thiophene-3-carboxamide], the pest or weed control at 0.5 mg/pot came out at 87%.

Turning to `CCNC(=O)c1c([Si](C)(C)C)sc(C)c1C` [Example 271, 4,5-Dimethyl-N-ethyl-2-(trimethylsilyl)-3-thiophenecarboxamide], the pest or weed control at 0.5 mg/pot stood at 97%.

`CCN(SC)C(=O)c1sccc1[Si](C)(C)C` [Example 272, N-Ethyl-N-(methylthio)-3-(trimethylsilyl)-2-thiophenecarboxamide]: the pest or weed control at 0.5 mg/pot came to 0%.

For another assay, the system named is Gaeumannomyces graminis var. tritici (Ggt). The assay can be described thus: In vitro Assay: mycelial growth of Ggt on minimal media agar plates containing test compound. It is filed as cell-based. The following applies: Gaeumannomyces graminis; 0.1 ppm in minimal media agar; dark, 19-20° C., 4 to 5 days; diameter of mycelial growth; read-out: In vitro (ppm) 0.1, Percent Inhibition. The procedure, abridged: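 Ggt mycelial diameter read after 4 to 5 days in darkness at 19-20° C, from three 4-mm plugs placed on Czapek Dox minimal agar containing test compound delivered in acetone. Inhibition expressed as percent versus untreated plates, plug size (4 mm) subtracted from both.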
What is called inhibition is the relative decrease from the control value, in per cent. In the case of `CCNC(=O)c1c([Si](C)(C)C)ccc(OC)c1Cl` [Example 219, 2-Chloro-N-ethyl-3-methoxy-6-(trimethylsilyl)benzamide], the inhibition at 0.1 ppm amounted to 50%.

For the molecule `CCNC(=O)c1c([Si](C)(C)C)ccc(Br)c1Cl` [Example 220, 3-Bromo-2-chloro-N-ethyl-6-(trimethylsilyl)benzamide], the inhibition at 0.1 ppm amounted to 75%.

Turning to `CCNC(=O)c1c([Si](C)(C)C)ccc(C=O)c1Cl` [Example 223, 2-Chloro-N-ethyl-3-formyl-6-(trimethylsilyl)benzamide], the inhibition at 0.1 ppm was 48%.

On to `CCNC(=O)c1c([Si](C)(C)C)ccc(C(F)F)c1Cl` [Example 224, 2-Chloro-3-(difluoromethyl)-N-ethyl-6-(trimethylsilyl)benzamide], for which the inhibition at 0.1 ppm is less than 0%.

Consider `CCNC(=O)c1c([Si](C)(C)C)ccc(CO)c1Cl` [Example 227, 2-Chloro-N-ethyl-3-(hydroxymethyl)-6-(trimethylsilyl)benzamide], for which the inhibition at 0.1 ppm was 36%.

For the molecule `CCNC(=O)c1c([Si](C)(C)C)ccc(CF)c1Cl` [Example 228, 2-Chloro-N-ethyl-3-(fluoromethyl)-6-(trimethylsilyl)benzamide], the inhibition at 0.1 ppm is less than 0%.

As to `CCNC(=O)c1c(Cl)ccc(Br)c1[Si](C)(C)C` [Example 232, 3-Bromo-6-chloro-N-ethyl-2-(trimethylsilyl)benzamide], the inhibition at 0.1 ppm is 92%.

On to `CCNC(=O)c1sc([Si](C)(C)C)cc1[Si](C)(C)C` [Example 249, N-Ethyl-3,5-bis(trimethylsilyl)-2-thiophenecarboxamide], for which the inhibition at 0.1 ppm is 17%.

For `CCNC(=O)c1sc(Cl)cc1[Si](C)(C)C` [Example 254, 5-Chloro-N-ethyl-3-(trimethylsilyl)-2-thiophenecarboxamide], the inhibition at 0.1 ppm came to 97%.

As to `CCNC(=O)c1sc(Br)cc1[Si](C)(C)C` [Example 266, 5-Bromo-N-ethyl-3-(trimethylsilyl)-2-thiophenecarboxamide], the inhibition at 0.1 ppm is 21%.

For the molecule `CCNC(=O)c1cc([Si](C)(C)C)sc1[Si](C)(C)C` [Example 269, N-Ethyl-2,5-bis(trimethylsilyl)-3-thiophenecarboxamide], the inhibition at 0.1 ppm is less than 0%.

In the case of `CCNC(=O)c1c([Si](C)(C)C)sc2c1CCCC2` [Example 270, N-Ethyl-2-(trimethylsilyl)-4,5,6,7-tetrahydrobenzo[B]thiophene-3-carboxamide], the inhibition at 0.1 ppm was found to be 96%.

With `CCNC(=O)c1c([Si](C)(C)C)sc(C)c1C` [Example 271, 4,5-Dimethyl-N-ethyl-2-(trimethylsilyl)-3-thiophenecarboxamide], the inhibition at 0.1 ppm was 95%.

As to `CCN(SC)C(=O)c1sccc1[Si](C)(C)C` [Example 272, N-Ethyl-N-(methylthio)-3-(trimethylsilyl)-2-thiophenecarboxamide], the inhibition at 0.1 ppm came out at 14%.

Staying with this assay, now noted: Gaeumannomyces graminis; 1 ppm in minimal media agar; dark, 19-20° C., 4 to 5 days; diameter of mycelial growth; read-out: In vitro (ppm) 1, Percent Inhibition.
With `CCNC(=O)c1c([Si](C)(C)C)ccc(OC)c1Cl` [Example 219, 2-Chloro-N-ethyl-3-methoxy-6-(trimethylsilyl)benzamide], the inhibition at 1 ppm is 94%.

For the molecule `CCNC(=O)c1c([Si](C)(C)C)ccc(Br)c1Cl` [Example 220, 3-Bromo-2-chloro-N-ethyl-6-(trimethylsilyl)benzamide], the inhibition at 1 ppm was 100%.

As for `CCNC(=O)c1c([Si](C)(C)C)ccc(C=O)c1Cl` [Example 223, 2-Chloro-N-ethyl-3-formyl-6-(trimethylsilyl)benzamide], the inhibition at 1 ppm turned out to be 93%.

In the case of `CCNC(=O)c1c([Si](C)(C)C)ccc(C(F)F)c1Cl` [Example 224, 2-Chloro-3-(difluoromethyl)-N-ethyl-6-(trimethylsilyl)benzamide], the inhibition at 1 ppm is 27%.

For `CCNC(=O)c1c([Si](C)(C)C)ccc(CO)c1Cl` [Example 227, 2-Chloro-N-ethyl-3-(hydroxymethyl)-6-(trimethylsilyl)benzamide], the inhibition at 1 ppm came to 68%.

Regarding `CCNC(=O)c1c([Si](C)(C)C)ccc(CF)c1Cl` [Example 228, 2-Chloro-N-ethyl-3-(fluoromethyl)-6-(trimethylsilyl)benzamide], the inhibition at 1 ppm is 87%.

`CCNC(=O)c1c(Cl)ccc(Br)c1[Si](C)(C)C` [Example 232, 3-Bromo-6-chloro-N-ethyl-2-(trimethylsilyl)benzamide]: the inhibition at 1 ppm was found to be 97%.

Consider `CCNC(=O)c1sc([Si](C)(C)C)cc1[Si](C)(C)C` [Example 249, N-Ethyl-3,5-bis(trimethylsilyl)-2-thiophenecarboxamide], for which the inhibition at 1 ppm was 48%.

Turning to `CCNC(=O)c1sc(Cl)cc1[Si](C)(C)C` [Example 254, 5-Chloro-N-ethyl-3-(trimethylsilyl)-2-thiophenecarboxamide], the inhibition at 1 ppm stood at 97%.

For `CCNC(=O)c1sc(Br)cc1[Si](C)(C)C` [Example 266, 5-Bromo-N-ethyl-3-(trimethylsilyl)-2-thiophenecarboxamide], the inhibition at 1 ppm was determined as 61%.

Turning to `CCNC(=O)c1cc([Si](C)(C)C)sc1[Si](C)(C)C` [Example 269, N-Ethyl-2,5-bis(trimethylsilyl)-3-thiophenecarboxamide], the inhibition at 1 ppm was found to be 91%.

Turning to `CCNC(=O)c1c([Si](C)(C)C)sc2c1CCCC2` [Example 270, N-Ethyl-2-(trimethylsilyl)-4,5,6,7-tetrahydrobenzo[B]thiophene-3-carboxamide], the inhibition at 1 ppm was determined as 100%.

For `CCNC(=O)c1c([Si](C)(C)C)sc(C)c1C` [Example 271, 4,5-Dimethyl-N-ethyl-2-(trimethylsilyl)-3-thiophenecarboxamide], the inhibition at 1 ppm was 100%.

Turning to `CCN(SC)C(=O)c1sccc1[Si](C)(C)C` [Example 272, N-Ethyl-N-(methylthio)-3-(trimethylsilyl)-2-thiophenecarboxamide], the inhibition at 1 ppm worked out at 23%.

The assay is the same for the next values; noted with them: Gaeumannomyces graminis; 10 ppm in minimal media agar; dark, 19-20° C., 4 to 5 days; diameter of mycelial growth; read-out: In vitro (ppm) 10, Percent Inhibition.
On to `CCNC(=O)c1c([Si](C)(C)C)ccc(OC)c1Cl` [Example 219, 2-Chloro-N-ethyl-3-methoxy-6-(trimethylsilyl)benzamide], for which the inhibition at 10 ppm amounted to 100%.

Consider `CCNC(=O)c1c([Si](C)(C)C)ccc(Br)c1Cl` [Example 220, 3-Bromo-2-chloro-N-ethyl-6-(trimethylsilyl)benzamide], for which the inhibition at 10 ppm worked out at 100%.

On to `CCNC(=O)c1c([Si](C)(C)C)ccc(C=O)c1Cl` [Example 223, 2-Chloro-N-ethyl-3-formyl-6-(trimethylsilyl)benzamide], for which the inhibition at 10 ppm was determined as 96%.

`CCNC(=O)c1c([Si](C)(C)C)ccc(C(F)F)c1Cl` [Example 224, 2-Chloro-3-(difluoromethyl)-N-ethyl-6-(trimethylsilyl)benzamide]: the inhibition at 10 ppm was determined as 93%.

Consider `CCNC(=O)c1c([Si](C)(C)C)ccc(CO)c1Cl` [Example 227, 2-Chloro-N-ethyl-3-(hydroxymethyl)-6-(trimethylsilyl)benzamide], for which the inhibition at 10 ppm stood at 100%.

As to `CCNC(=O)c1c([Si](C)(C)C)ccc(CF)c1Cl` [Example 228, 2-Chloro-N-ethyl-3-(fluoromethyl)-6-(trimethylsilyl)benzamide], the inhibition at 10 ppm is 96%.

On to `CCNC(=O)c1c(Cl)ccc(Br)c1[Si](C)(C)C` [Example 232, 3-Bromo-6-chloro-N-ethyl-2-(trimethylsilyl)benzamide], for which the inhibition at 10 ppm came out at 95%.

In the case of `CCNC(=O)c1sc([Si](C)(C)C)cc1[Si](C)(C)C` [Example 249, N-Ethyl-3,5-bis(trimethylsilyl)-2-thiophenecarboxamide], the inhibition at 10 ppm came to 100%.

As for `CCNC(=O)c1sc(Cl)cc1[Si](C)(C)C` [Example 254, 5-Chloro-N-ethyl-3-(trimethylsilyl)-2-thiophenecarboxamide], the inhibition at 10 ppm is 100%.

On to `CCNC(=O)c1sc(Br)cc1[Si](C)(C)C` [Example 266, 5-Bromo-N-ethyl-3-(trimethylsilyl)-2-thiophenecarboxamide], for which the inhibition at 10 ppm was found to be 100%.

`CCNC(=O)c1cc([Si](C)(C)C)sc1[Si](C)(C)C` [Example 269, N-Ethyl-2,5-bis(trimethylsilyl)-3-thiophenecarboxamide]: the inhibition at 10 ppm was found to be 100%.

On to `CCNC(=O)c1c([Si](C)(C)C)sc2c1CCCC2` [Example 270, N-Ethyl-2-(trimethylsilyl)-4,5,6,7-tetrahydrobenzo[B]thiophene-3-carboxamide], for which the inhibition at 10 ppm came out at 100%.

For the molecule `CCNC(=O)c1c([Si](C)(C)C)sc(C)c1C` [Example 271, 4,5-Dimethyl-N-ethyl-2-(trimethylsilyl)-3-thiophenecarboxamide], the inhibition at 10 ppm turned out to be 100%.

For the molecule `CCN(SC)C(=O)c1sccc1[Si](C)(C)C` [Example 272, N-Ethyl-N-(methylthio)-3-(trimethylsilyl)-2-thiophenecarboxamide], the inhibition at 10 ppm worked out at 100%.
